ChEMBL document CHEMBL1132901, “Synthesis and structure-activity relationships of quaternary ammonium cephalosporins with 3-pyrazolylpyridinium derivatives” (2000)
Converted amounts (≈) assume the structure as drawn.

Experiments:
Enterobacter cloacae [1] = assay: In vitro antimicrobial activity against Enterobacter 1321 E; assay type: functional
Enterobacter cloacae [2] = assay: In vitro antimicrobial activity against Enterobacter cloacae P99; assay type: functional
Staphylococcus aureus [3] = assay: In vitro antimicrobial activity against Staphylococcus aureus 285; assay type: functional
Staphylococcus aureus [4] = assay: In vitro antimicrobial activity against Staphylococcus aureus 503; assay type: functional
Pseudomonas aeruginosa [5] = assay: In vitro antimicrobial activity against Pseudomonas aeruginosa 9027; assay type: functional
Klebsiella oxytoca = assay: In vitro antimicrobial activity against Klebsiella oxytoca 1082; assay type: functional
Escherichia coli [6] = assay: In vitro antimicrobial activity against Escherichia coli DC 2; assay type: functional
Streptococcus pyogenes [7] = assay: In vitro antimicrobial activity against Streptococcus pyogenes 77A; assay type: functional
Enterococcus faecium = assay: In vitro antimicrobial activity against Streptococcus faecium MD 8b; assay type: functional
Escherichia coli [8] = assay: In vitro antimicrobial activity against Escherichia coli DC 0; assay type: functional
Pseudomonas aeruginosa [9] = assay: In vitro antimicrobial activity against Pseudomonas aeruginosa 1592 E; assay type: functional
Pseudomonas aeruginosa [10] = assay: In vitro antimicrobial activity against Pseudomonas aeruginosa 1771; assay type: functional
Streptococcus pyogenes [11] = assay: In vitro antimicrobial activity against Streptococcus pyogenes SG 511; assay type: functional
Staphylococcus aureus [12] = assay: In vitro antimicrobial activity against Methicillin resistant Staphylococcus aureus (MRSA); assay type: functional
Klebsiella aerogenes = assay: In vitro antimicrobial activity against Klebsiella aerogenes 1522 E; assay type: functional
Salmonella typhimurium = assay: In vitro antimicrobial activity against Salmonella Typhimurium; assay type: functional, Salmonella enterica subsp. enterica serovar Typhimurium; conditions: Salmonella enterica
Streptococcus pyogenes [13] = assay: In vitro antimicrobial activity against Streptococcus pyogenes A 308; assay type: functional
Pseudomonas aeruginosa [14] = assay: In vitro antimicrobial activity against Pseudomonas aeruginosa 1771 M; assay type: functional
Escherichia coli [15] = assay: In vitro antimicrobial activity against Escherichia coli TEM; assay type: functional
Escherichia coli [16] = assay: In vitro antimicrobial activity against Escherichia coli 055; assay type: functional
Escherichia coli [17] = assay: In vitro antimicrobial activity against Escherichia coli 1507E; assay type: functional

| Compound | MIC (Enterobacter cloacae [1]) [µg/mL] | MIC (Enterobacter cloacae [2]) [µg/mL] | MIC (Staphylococcus aureus [3]) [µg/mL] | MIC (Staphylococcus aureus [4]) [µg/mL] | MIC (Pseudomonas aeruginosa [5]) [µg/mL] | MIC (Klebsiella oxytoca) [µg/mL] | MIC (Escherichia coli [6]) [µg/mL] | MIC (Streptococcus pyogenes [7]) [µg/mL] | MIC (Enterococcus faecium) [µg/mL] | MIC (Escherichia coli [8]) [µg/mL] | MIC (Pseudomonas aeruginosa [9]) [µg/mL] | MIC (Pseudomonas aeruginosa [10]) [µg/mL] | MIC (Streptococcus pyogenes [11]) [µg/mL] | MIC (Staphylococcus aureus [12]) [µg/mL] | MIC (Klebsiella aerogenes) [µg/mL] | MIC (Salmonella typhimurium) [µg/mL] | MIC (Streptococcus pyogenes [13]) [µg/mL] | MIC (Pseudomonas aeruginosa [14]) [µg/mL] | MIC (Escherichia coli [15]) [µg/mL] | MIC (Escherichia coli [16]) [µg/mL] | other results |
| --- | --- | --- | --- | --- | --- | --- | --- | --- | --- | --- | --- | --- | --- | --- | --- | --- | --- | --- | --- | --- | --- |
| CO/N=C(/C(=O)N[C@@H]1C(=O)N2C(C(=O)[O-])=C(C[n+]3cccc(-c4cc(C(N)=O)[nH]n4)c3)CS[C@H]12)c1csc(N)n1 | 0.025 (≈ 0.0428 µM) | 50 (≈ 85.7 µM) | 1.56 (≈ 2.68 µM) | 0.391 (≈ 0.67 µM) | 6.25 (≈ 10.7 µM) | 1.56 (≈ 2.68 µM) | 0.025 (≈ 0.0428 µM) | 0.013 (≈ 0.0223 µM) | 3.12 (≈ 5.35 µM) | 0.025 (≈ 0.0428 µM) | 3.12 (≈ 5.35 µM) | 1.56 (≈ 2.68 µM) | 0.781 (≈ 1.34 µM) | 50 (≈ 85.7 µM) | 0.049 (≈ 0.084 µM) | 0.049 (≈ 0.084 µM) | 0.013 (≈ 0.0223 µM) | 0.781 (≈ 1.34 µM) | 0.195 (≈ 0.334 µM) | 0.025 (≈ 0.0428 µM) | MIC (Escherichia coli [17]): 0.098 µg/mL (≈ 0.168 µM) |
| CO/N=C(/C(=O)N[C@@H]1C(=O)N2C(C(=O)[O-])=C(C[n+]3cccc(-c4cc(N)n(CCO)n4)c3)CS[C@H]12)c1csc(N)n1 | 0.025 (≈ 0.0417 µM) | 50 (≈ 83.4 µM) | 1.56 (≈ 2.61 µM) | 0.391 (≈ 0.652 µM) | 12.5 (≈ 20.8 µM) | 3.12 (≈ 5.21 µM) | 0.013 (≈ 0.0217 µM) | 0.013 (≈ 0.0217 µM) | 1.56 (≈ 2.61 µM) | 0.025 (≈ 0.0417 µM) | 6.25 (≈ 10.4 µM) | 3.12 (≈ 5.21 µM) | 0.781 (≈ 1.3 µM) | 12.5 (≈ 20.8 µM) | 0.049 (≈ 0.0817 µM) | 0.098 (≈ 0.163 µM) | 0.025 (≈ 0.0417 µM) | 0.391 (≈ 0.652 µM) | 0.098 (≈ 0.163 µM) | 0.025 (≈ 0.0417 µM) | MIC (Escherichia coli [17]): 0.098 µg/mL (≈ 0.163 µM) |
| CO/N=C(/C(=O)N[C@@H]1C(=O)N2C(C(=O)[O-])=C(C[n+]3cccc(-c4cc(N)n(C)n4)c3)CS[C@H]12)c1csc(N)n1 | 0.025 (≈ 0.0439 µM) | 25 (≈ 43.9 µM) | 0.781 (≈ 1.37 µM) | 0.391 (≈ 0.686 µM) | 6.25 (≈ 11 µM) | 1.56 (≈ 2.74 µM) | 0.013 (≈ 0.0228 µM) | 0.007 (≈ 0.0123 µM) | 1.56 (≈ 2.74 µM) | 0.025 (≈ 0.0439 µM) | 3.12 (≈ 5.49 µM) | 1.56 (≈ 2.74 µM) | 0.781 (≈ 1.37 µM) | 50 (≈ 87.8 µM) | 0.025 (≈ 0.0439 µM) | 0.049 (≈ 0.086 µM) | 0.013 (≈ 0.0228 µM) | 0.391 (≈ 0.686 µM) | 0.098 (≈ 0.172 µM) | 0.025 (≈ 0.0439 µM) | MIC (Escherichia coli [17]): 0.049 µg/mL (≈ 0.086 µM) |
| CO/N=C(/C(=O)N[C@@H]1C(=O)N2C(C(=O)[O-])=C(C[n+]3cccc(-c4cc(N)[nH]n4)c3)CS[C@H]12)c1csc(N)n1 | 0.013 (≈ 0.0234 µM) | 50 (≈ 90 µM) | 0.781 (≈ 1.41 µM) | 0.195 (≈ 0.351 µM) | 3.12 (≈ 5.62 µM) | 1.56 (≈ 2.81 µM) | 0.013 (≈ 0.0234 µM) | 0.007 (≈ 0.0126 µM) | 1.56 (≈ 2.81 µM) | 0.025 (≈ 0.045 µM) | 1.56 (≈ 2.81 µM) | 0.781 (≈ 1.41 µM) | 0.391 (≈ 0.704 µM) | 25 (≈ 45 µM) | 0.025 (≈ 0.045 µM) | 0.049 (≈ 0.0882 µM) | 0.007 (≈ 0.0126 µM) | 0.195 (≈ 0.351 µM) | 0.049 (≈ 0.0882 µM) | 0.013 (≈ 0.0234 µM) | MIC (Escherichia coli [17]): 0.025 µg/mL (≈ 0.045 µM) |
| CO/N=C(/C(=O)N[C@@H]1C(=O)N2C(C(=O)[O-])=C(C[n+]3cccc(-c4cc(C(N)=O)nn4CCO)c3)CS[C@H]12)c1csc(N)n1 | 0.049 (≈ 0.0781 µM) | 50 (≈ 79.7 µM) | 3.12 (≈ 4.98 µM) | 0.781 (≈ 1.24 µM) | 25 (≈ 39.8 µM) | 6.25 (≈ 9.96 µM) | 0.098 (≈ 0.156 µM) | 0.025 (≈ 0.0398 µM) | 6.25 (≈ 9.96 µM) | 0.098 (≈ 0.156 µM) | 12.5 (≈ 19.9 µM) | 3.12 (≈ 4.98 µM) | 1.56 (≈ 2.49 µM) | 25 (≈ 39.8 µM) | 0.098 (≈ 0.156 µM) | 0.098 (≈ 0.156 µM) | 0.049 (≈ 0.0781 µM) | 0.781 (≈ 1.24 µM) | 0.391 (≈ 0.623 µM) | 0.098 (≈ 0.156 µM) | MIC (Escherichia coli [17]): 0.195 µg/mL (≈ 0.311 µM) |
| CO/N=C(/C(=O)N[C@@H]1C(=O)N2C(C(=O)[O-])=C(C[n+]3cccc(-c4cc(C(N)=O)nn4C)c3)CS[C@H]12)c1csc(N)n1 | 0.025 (≈ 0.0418 µM) | 25 (≈ 41.8 µM) | 3.12 (≈ 5.23 µM) | 0.391 (≈ 0.654 µM) | 25 (≈ 41.8 µM) | 3.12 (≈ 5.23 µM) | 0.025 (≈ 0.0418 µM) | 0.013 (≈ 0.0218 µM) | 3.12 (≈ 5.23 µM) | 0.049 (≈ 0.082 µM) | 12.5 (≈ 20.9 µM) | 3.12 (≈ 5.23 µM) | 1.56 (≈ 2.62 µM) | 100 (≈ 167 µM) | 0.049 (≈ 0.082 µM) | 0.098 (≈ 0.164 µM) | 0.025 (≈ 0.0418 µM) | 0.391 (≈ 0.654 µM) | 0.195 (≈ 0.326 µM) | 0.049 (≈ 0.082 µM) | MIC (Escherichia coli [17]): 0.098 µg/mL (≈ 0.164 µM) |
| CC(C)(O/N=C(\C(=O)N[C@@H]1C(=O)N2C(C(=O)[O-])=C(C[n+]3ccccc3)CS[C@H]12)c1csc(N)n1)C(=O)O [CEFTAZIDIME] | 0.025 (≈ 0.0457 µM) | > 100 | 12.5 (≈ 22.9 µM) | 3.12 (≈ 5.72 µM) | 3.12 (≈ 5.72 µM) | 0.391 (≈ 0.715 µM) | 0.098 (≈ 0.179 µM) | 0.049 (≈ 0.0896 µM) | > 100 | 0.098 (≈ 0.179 µM) | 1.56 (≈ 2.86 µM) | 0.781 (≈ 1.43 µM) | 12.5 (≈ 22.9 µM) | > 100 | 0.098 (≈ 0.179 µM) | 0.195 (≈ 0.357 µM) | 0.098 (≈ 0.179 µM) | 0.195 (≈ 0.357 µM) | 0.195 (≈ 0.357 µM) | 0.098 (≈ 0.179 µM) | MIC (Escherichia coli [17]): 0.195 µg/mL (≈ 0.357 µM) |
